Reference: ChEMBL document CHEMBL1201862, “PubChem BioAssay data set” (2004)
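Tested at 5 concentrations; 48 h exposure; 96-well plates; endpoints linearly interpolated, else capped at highest concentration. At the GI50, growth is halved.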 Active and inactive are the calls of the source. No stated cut-off is given here; in the data, active = GI50 up to about 1.1 µM and inactive = higher.

Assays:
Test in all cases: NCI anticancer screen, dose series, 48 h
HCT-15 = test system: HCT-15
RXF 393 = test system: RXF 393
SK-MEL-5 = test system: SK-MEL-5
M19-MEL = test system: M19-MEL
LOX IMVI = test system: LOX IMVI
M14 = test system: M14
SW-620 = test system: SW-620
TK-10 = test system: TK-10
HL-60 = test system: HL-60
SF-295 = test system: SF-295
786-0 = test system: 786-0
SNB-75 = test system: SNB-75
HCT-116 = test system: HCT-116
CAKI-1 = test system: CAKI-1
A498 = test system: A498
MCF7 = test system: MCF7
PC-3 = test system: PC-3
Hs-578T = test system: Hs-578T
NCI/ADR-RES = test system: NCI/ADR-RES
T47D = test system: T47D

Row | Compound | GI50 (HCT-15) [µM] | GI50 (RXF 393) | GI50 (SK-MEL-5) | GI50 (M19-MEL) | GI50 (LOX IMVI) | GI50 (M14) | GI50 (SW-620) | GI50 (TK-10) | GI50 (HL-60) | GI50 (SF-295) | GI50 (786-0) | GI50 (SNB-75) | GI50 (HCT-116) | GI50 (CAKI-1) | GI50 (A498) | GI50 (MCF7) | GI50 (PC-3) | GI50 (Hs-578T) | GI50 (NCI/ADR-RES) | GI50 (T47D)
1 | NC1=NS(=O)(=O)Nc2nc(-c3ccccc3)c(-c3ccccc3)nc21 | > 100 | > 100 µM (inactive) | > 100 µM (inactive) | > 100 µM (inactive) | > 100 µM (inactive) | > 100 µM (inactive) | > 100 µM (inactive) | > 100 µM (inactive) | > 100 µM (inactive) | > 100 µM (inactive) | > 100 µM (inactive) | > 100 µM (inactive) | > 100 µM (inactive) | – | – | – | – | – | – | –
2 | CC1NS(=O)(=O)N(C)C1=O (configuration not stated) | > 100 | > 100 µM (inactive) | > 100 µM (inactive) | > 100 µM (inactive) | > 100 µM (inactive) | > 100 µM (inactive) | > 100 µM (inactive) | > 100 µM (inactive) | > 100 µM (inactive) | > 100 µM (inactive) | > 10 µM (inactive) | 81.8 µM (inactive) | > 100 µM (inactive) | > 100 µM (inactive) | – | – | – | – | – | –
3 | Nc1nc(O)c2c(ncn2CCO)n1 | > 100 | > 100 µM (inactive) | – | > 100 µM (inactive) | > 100 µM (inactive) | – | > 100 µM (inactive) | > 100 µM (inactive) | > 100 µM (inactive) | > 100 µM (inactive) | > 100 µM (inactive) | > 100 µM (inactive) | > 100 µM (inactive) | – | – | – | – | – | – | –
4 | O=c1c2cccnc2ncn1CCN1CCCCC1 | – | > 100 µM (inactive) | > 100 µM (inactive) | > 100 µM (inactive) | > 100 µM (inactive) | > 100 µM (inactive) | > 100 µM (inactive) | > 100 µM (inactive) | – | > 100 µM (inactive) | > 100 µM (inactive) | > 100 µM (inactive) | > 100 µM (inactive) | > 100 µM (inactive) | – | – | – | – | – | –
5 | O=C1c2cccc(O)c2C(=O)c2cccc(O)c21 [ANTHRARUFIN] | > 100 | > 100 µM (inactive) | – | > 100 µM (inactive) | > 100 µM (inactive) | > 100 µM (inactive) | > 100 µM (inactive) | > 100 µM (inactive) | – | > 100 µM (inactive) | > 100 µM (inactive) | > 100 µM (inactive) | > 100 µM (inactive) | > 100 µM (inactive) | > 100 µM (inactive) | – | – | – | – | –
6 | CC(C)(C)c1cc2c3c(c1)C(C(F)(F)F)(C(F)(F)F)O[Te]3(C)OC2(C(F)(F)F)C(F)(F)F | > 100 | > 100 µM (inactive) | – | > 100 µM (inactive) | > 100 µM (inactive) | > 100 µM (inactive) | > 100 µM (inactive) | > 100 µM (inactive) | > 100 µM (inactive) | > 100 µM (inactive) | > 100 µM (inactive) | – | > 100 µM (inactive) | > 100 µM (inactive) | – | – | – | – | – | –
7 | CC(C)C[C@H](NC(=O)[C@H](Cc1ccc(F)cc1)NC(=O)c1ccccn1)B(O)O | < 0.01 | < 0.01 µM (active) | < 0.01 µM (active) | – | < 0.01 µM (active) | < 0.01 µM (active) | < 0.01 µM (active) | < 0.01 µM (active) | < 0.01 µM (active) | < 0.01 µM (active) | < 0.01 µM (active) | < 0.01 µM (active) | < 0.01 µM (active) | < 0.01 µM (active) | < 0.01 µM (active) | < 0.01 µM (active) | < 0.01 µM (active) | < 0.01 µM (active) | < 0.01 µM (active) | < 0.01 µM (active)
8 | COC(=O)C(=C\Sc1ccccc1)/C=C/C(=O)OC(C)(C)C | 6.67 | 2.69 µM (inactive) | 15 µM (inactive) | 10.8 µM (inactive) | 8.32 µM (inactive) | 7.78 µM (inactive) | 3.8 µM (inactive) | 17.1 µM (inactive) | 1.48 µM (inactive) | 17.4 µM (inactive) | 5.27 µM (inactive) | 14 µM (inactive) | 8.47 µM (inactive) | 3.87 µM (inactive) | – | – | – | – | – | –
9 | Cc1ncc(CO)c(/C=N/CCCCCC/N=C/c2c(CO)cnc(C)c2[O-])c1[O-].[Mg+2] | > 100 | > 100 µM (inactive) | > 100 µM (inactive) | – | > 100 µM (inactive) | > 100 µM (inactive) | > 100 µM (inactive) | > 100 µM (inactive) | > 100 µM (inactive) | > 100 µM (inactive) | > 100 µM (inactive) | 99.5 µM (inactive) | > 100 µM (inactive) | > 100 µM (inactive) | > 100 µM (inactive) | > 60.1 µM (inactive) | > 100 µM (inactive) | > 100 µM (inactive) | > 100 µM (inactive) | > 100 µM (inactive)
